Assay results from ChEMBL document CHEMBL1140402, “SAR, species specificity, and cellular activity of cyclopentene dicarboxylic acid amides as DHODH inhibitors” (Bioorg Med Chem Lett, 2005).

Experiments:
[1] = target: Dihydroorotate dehydrogenase (quinone), mitochondrial (Homo sapiens, UniProt Q02127); test: Inhibition of N-terminally truncated recombinant human dihydroorotate dehydrogenase using in vitro enzyme assay
[2] = target: Dihydroorotate dehydrogenase (quinone), mitochondrial (Mus musculus, UniProt O35435); test: Inhibitory activity against mouse dihydroorotate dehydrogenase
[3] = target: Dihydroorotate dehydrogenase (quinone), mitochondrial (Rattus norvegicus, UniProt Q63707); test: Inhibitory activity against rat dihydroorotate dehydrogenase
[4] = Inhibitory activity (proliferation) against human peripheral blood mononuclear cells stimulated with Phytohemagglutininin-L (value range: 0.175-0.327); assay type: functional
[5] = Inhibitory activity (proliferation) against human peripheral blood mononuclear cells stimulated with Phytohemagglutininin-L; assay type: functional

Sequence of Dihydroorotate dehydrogenase (quinone), mitochondrial (Rattus norvegicus, UniProt Q63707) (Q63707 whole entry): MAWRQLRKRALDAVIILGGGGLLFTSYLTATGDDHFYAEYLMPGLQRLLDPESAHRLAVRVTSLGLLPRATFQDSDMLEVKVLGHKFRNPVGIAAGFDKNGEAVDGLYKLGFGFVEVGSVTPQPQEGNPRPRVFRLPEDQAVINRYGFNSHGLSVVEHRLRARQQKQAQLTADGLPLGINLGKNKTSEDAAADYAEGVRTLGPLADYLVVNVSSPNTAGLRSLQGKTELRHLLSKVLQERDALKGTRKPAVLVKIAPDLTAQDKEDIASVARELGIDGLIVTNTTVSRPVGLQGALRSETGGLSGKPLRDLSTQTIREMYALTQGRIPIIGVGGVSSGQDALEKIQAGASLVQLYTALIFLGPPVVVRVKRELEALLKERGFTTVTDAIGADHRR
Sequence of Dihydroorotate dehydrogenase (quinone), mitochondrial (Mus musculus, UniProt O35435) (O35435 whole entry): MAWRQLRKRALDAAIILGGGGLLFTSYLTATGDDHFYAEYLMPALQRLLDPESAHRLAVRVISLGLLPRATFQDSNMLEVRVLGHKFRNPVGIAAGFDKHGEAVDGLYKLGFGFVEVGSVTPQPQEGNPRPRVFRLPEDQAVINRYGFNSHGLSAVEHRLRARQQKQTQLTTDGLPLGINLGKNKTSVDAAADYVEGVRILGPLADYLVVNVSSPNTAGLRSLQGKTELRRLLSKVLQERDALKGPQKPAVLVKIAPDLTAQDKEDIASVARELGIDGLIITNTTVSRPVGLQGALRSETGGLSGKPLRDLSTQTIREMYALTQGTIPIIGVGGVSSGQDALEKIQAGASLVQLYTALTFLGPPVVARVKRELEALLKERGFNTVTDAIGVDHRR
Sequence of Dihydroorotate dehydrogenase (quinone), mitochondrial (Homo sapiens, UniProt Q02127) (Q02127 whole entry, the tested form may be a part): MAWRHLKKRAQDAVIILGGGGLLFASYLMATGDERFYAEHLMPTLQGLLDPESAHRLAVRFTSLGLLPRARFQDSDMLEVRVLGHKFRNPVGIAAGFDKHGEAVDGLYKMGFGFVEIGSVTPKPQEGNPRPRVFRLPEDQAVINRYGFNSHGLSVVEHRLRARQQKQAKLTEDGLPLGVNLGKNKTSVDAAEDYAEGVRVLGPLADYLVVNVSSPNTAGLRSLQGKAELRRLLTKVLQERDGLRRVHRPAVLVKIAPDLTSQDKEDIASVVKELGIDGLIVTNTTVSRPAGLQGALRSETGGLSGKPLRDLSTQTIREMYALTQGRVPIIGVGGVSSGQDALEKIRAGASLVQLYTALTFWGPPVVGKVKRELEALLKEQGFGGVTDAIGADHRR

| IC50 [1] | SMILES | also measured |
| --- | --- | --- |
| 0.68 µM | COc1cccc(-c2ccc(NC(=O)C3=C(C(=O)O)C(O)CC3)c(F)c2)c1 (configuration not stated) |  |
| 0.667 µM | O=C(O)C1=C(C(=O)Nc2ccc(-c3ccccc3)cc2)CSC1 |  |
| 3.8 µM | O=C(O)C1=C(C(=O)Nc2ccc(-c3ccccc3)cc2)CS(=O)(=O)C1 |  |
| 0.36 µM | COc1cccc(-c2ccc(NC(=O)C3=C(C(=O)O)COC3)c(F)c2)c1 |  |
| 0.011 µM | O=C(O)C1=C(C(=O)Nc2ccc(OCc3c(F)cccc3Cl)c(Cl)c2)CCC1 |  |
| 0.205 µM | O=C(O)C1=C(C(=O)Nc2c(F)cc(-c3cccc(OC(F)(F)F)c3)cc2F)COC1 |  |
| 1.46 µM | COc1cccc(-c2ccc(NC(=O)C3=C(C(=O)O)CCC3O)c(F)c2)c1 (configuration not stated) |  |
| 0.004 µM | O=C(O)C1=C(C(=O)Nc2c(F)c(F)c(-c3cccc(OC(F)(F)F)c3)c(F)c2F)CSC1 |  |

Further lines, the molecule ahead of its results:

| SMILES | IC50 [1] | also measured |
| --- | --- | --- |
| O=C(O)C1=C(C(=O)Nc2ccc(OCc3ccccc3)cc2)CCC1 | 2 µM |  |
| O=C(O)C1=C(C(=O)Nc2c(F)c(F)c(-c3cccc(OC(F)(F)F)c3)c(F)c2F)CCC1 |  | IC50 [2]: 0.422 µM; IC50 [3]: 0.078 µM; IC50 [4]: 0.327 µM |
| O=C(O)C1=C(C(=O)Nc2cc(Br)c(OCc3ccccc3)c(Br)c2)CCC1 | 0.127 µM |  |
| O=C(O)C1=C(C(=O)Nc2ccc(-c3ccccc3)cc2)CCC1 |  | IC50 [3]: 1.5 µM |
| O=C(O)C1=C(C(=O)Nc2c(F)c(F)c(-c3cccc(OC(F)(F)F)c3)c(F)c2F)COC1 | 0.058 µM |  |
| COc1cccc(-c2ccc(NC(=O)C3=C(C(=O)O)CCC3)c(F)c2)c1 [VIDOFLUDIMUS] |  | IC50 [5]: 13 µM |
| C/C(O)=C(\C#N)C(=O)Nc1ccc(C(F)(F)F)cc1 [TERIFLUNOMIDE] |  | IC50 [5]: 108 µM |
| O=C(O)C1=C(C(=O)Nc2ccc(OCc3c(F)cccc3Cl)c(Cl)c2)COC1 | 0.041 µM | IC50 [2]: 1.8 µM; IC50 [3]: 1.2 µM; IC50 [5]: 1 µM |
| O=C(O)C1=C(C(=O)Nc2cc(Br)c(OCc3ccccc3)c(Br)c2)CSC1 | 0.173 µM |  |
| COc1cccc(-c2ccc(NC(=O)C3=C(C(=O)O)CSC3)c(F)c2)c1 | 0.131 µM |  |
| O=C(O)C1=C(C(=O)Nc2c(F)cc(-c3cccc(OC(F)(F)F)c3)cc2F)CCC1 |  | IC50 [2]: 2 µM; IC50 [3]: 0.504 µM; IC50 [5]: 15 µM |
| O=C(O)C1=C(C(=O)Nc2c(F)cc(-c3cccc(OC(F)(F)F)c3)cc2F)CSC1 | 0.015 µM |  |
